This is an account of results in a melting point compilation (Tetko et al.; mined from patent text by program, amines drawn as free bases though some values may be those of a salt).

A word on the melting point: it is the temperature of the solid-liquid transition. As for `Cc1c(N2C(=O)C[C@](C)(O)[C@@H]2C)ccc(C#N)c1F`, the melting point is 138 to 141 °C. To `CC1(C)COC(c2c(Cl)cc(Cl)cc2-c2ccc(F)cc2)=N1` belongs 93 to 95 °C; to `c1ccc(CN2CCN(Cc3ccccc3)[C@@H](CCc3ccccn3)C2)cc1`, 83 to 86 °C. To `COC(=O)NNC(C)=S` belongs 99 to 100 °C; to `COc1ccc(-c2ccc3c(=O)[nH]c(=O)[nH]c3n2)cc1COC(=O)C(C)(C)C`, 260 to 266 °C; to `CCCCCCCCCCCCCCCOCCSCCCO`, 44 to 47 °C. For `CC1(C)OC(=O)Nc2ccc(-c3cccc(C#CC#N)c3)cc21` the value was 212 to 213 °C; for `FC(F)(F)Oc1ccc2[nH]c(S)nc2c1`, 305 to 307 °C. The compound `COc1cccc(Oc2c(NS(=O)(=O)c3ccc(C(C)(C)C)cc3)ncnc2SCCO)c1` displayed a melting point of 150 °C. For `CS(=O)(=O)C(=C1CN(C(c2ccccc2)c2ccccc2)C1)c1ccc(Cl)cc1Cl` the value was 165 °C.

Regarding `CCCN1CCC(c2n[nH]c3cc(F)ccc23)CC1`, the melting point was 175 to 177 °C. `c1ccc(CSc2nccn2-c2ccccn2)cc1` displayed a melting point of 76 to 77 °C. For `CON1CCN2C(=O)C(c3c(C)cc(C)cc3C)C(=O)N2CC1` the value was 229 to 230 °C. For `CC(=O)Nc1nc2c(Oc3cc(-c4ccc(C(F)(F)F)cc4OS(=O)(=O)C(F)(F)F)ncn3)cccc2s1` the value was 209 to 212 °C. To `CCCCc1cnc(C(N)=O)cc1N` belongs 103 to 105 °C. In turn, `COc1nn(-c2ccc(C=O)cc2)nc1Cl` showed a melting point of 147 to 148 °C.

Turning to `CCCCc1nc2cccc(C(=O)O)c2n1Cc1ccc2nc(-c3ccccc3-c3nnn[nH]3)ncc2c1`, the melting point fell in the range of 188 to 191 °C. To `CC1(C)OC[C@@H](N)[C@H](O)CO1` (relative stereo) belongs 81.5 to 82.5 °C. For `CCOC(=O)C1=C(CS(=O)(=O)c2ccccc2)Nc2ccnc(OC(C)C)c2C1c1ccccc1C(F)(F)F` (stereo unspecified) the value was 177 to 182 °C; for `CCCCCCCCCCCCCCCC(=O)n1nnnc1C(F)(F)F`, 66 to 69 °C. For `CC(C)(C)OC(=O)CN(C(=O)CNC(=O)Nc1cccc(CC(=O)O)c1)c1ccccc1C(=O)c1ccccc1` the value was 96 to 98 °C; for `CCNc1nc2ccc(CCc3nc4cc(C)ccn4c3C)cc2s1`, 165 to 166 °C. The compound `CCCc1c(OCCCOc2ccc3c(c2CCC)OC(C)(CCC(N)=O)CC3=O)ccc(C(C)=O)c1O` (stereo unspecified) showed a melting point of 77 to 79 °C. On to `O=C(O)COc1ccc(C(=O)c2cccc3ccccc23)c(Cl)c1Cl`, for which the melting point is 173 to 175 °C. For `CC(C)c1ccc(F)c(C(C)C)c1NC(=O)CN1CCN(CCSc2nc3ccccc3o2)CC1` the value was 142 to 144 °C. Consider `CCOC(=O)c1ccc2[nH]c(C)c(SC)c2c1`, for which the melting point lay in the range of 127 to 130 °C. For `COc1ccc2nccc(NC(=O)N3CCN(CC(O)c4ccc5c(c4)NC(=O)CO5)CC3)c2n1` (stereo unspecified) the value was 231 to 233 °C.

Turning to `N#CCc1c[nH]c2ccc(CS(N)(=O)=O)cc12`, the melting point is 184 to 185 °C. To `c1cc2c(c3c1CCN3)CCS2` belongs 170 to 172 °C; to `Cc1ccc(-c2ccc3c(c2)C=C(C(=O)Nc2ccc(CN(C)C4CCOCC4)cc2)CCN3C)cc1`, 178 to 181 °C.

Take `CC(C)CC(Oc1c(Br)cc(-c2ccc(-c3c(Cc4ccccc4)oc4ccccc34)cc2)cc1Br)C(=O)O` (stereo unspecified): the melting point lay within 81 to 83 °C. For `O=C(NCC12CC3CC(CC(C3)C1)C2)c1cc(NCCNCC(O)c2ccccc2)ccc1Cl` (stereo unspecified) the value was 63 to 64 °C; for `O=C(Nc1ccccc1SCc1ncon1)OCc1ccccc1`, 41 °C. For `COc1cccc(Oc2cccc(-c3c(O)c4ccc(Cl)cc4[nH]c3=O)c2)c1` the value was 268 to 270 °C; for `CCOC(=O)c1cc(C(C)=O)[nH]n1`, 114 to 115 °C. To `Cn1ccnc1SCCN1CCC(=C2c3ccn(C)c3CCn3ccnc32)CC1` belongs 200 °C. Consider `Ic1cnc2c(c1)N(Cc1ccccc1)CCN2`, for which the melting point is 147 to 148 °C. To `NCCNC(=S)Nc1c(Cl)cc([N+](=O)[O-])cc1Cl` belongs 205 °C; to `Cc1nn(C)c2c(Cl)nc(C(C)C)nc12`, 87 to 89 °C. For `CCOc1ccc(C2C(C(=O)c3ccc(C(C)C)cc3)=C(O)C(=O)N2c2ccc(C)nn2)cc1` (stereo unspecified) the value was 279 °C; for `NC(=O)Nc1ccc2c(c1)N1CCN=C1S2`, 300 °C; for `NCC#Cc1ccc(Cl)cc1C(=O)c1ccccc1Cl`, 81 to 89 °C. For `N#CC1(c2ccccc2Oc2ccc(Cl)cc2)CCNCC1` the value was 128 to 130 °C. `CCOC(=O)c1c(Cn2cncn2)nc2cc(OC)c(OC)cc2c1-c1ccc(O)c(O)c1` returned a melting point of 122 to 124 °C. The compound `COC(=O)CCC(=O)Nc1cc(Cl)ccc1C(=O)OC` yielded a melting point of 80 to 84 °C. To `Nc1cnccc1Oc1ccc2[nH]ccc2c1` belongs 155 to 157 °C; to `Cc1c(Cl)cc(C(C)C)c(-c2c(C(C)C)cc(Cl)c(C)c2O)c1O`, 98 °C; to `Cn1cc(-c2ccncn2)cc(Br)c1=O`, 208 to 210 °C.

The compound `CCN(CC)CC1CCCCN1CCNC(=O)N1c2cc(C)ccc2C(=O)Nc2cccnc21` (stereo unspecified) gave a melting point of 183 to 185 °C. In the case of `O=C(Nc1ccc(OCCN2CCCC2=O)c2ccccc12)c1cc(F)cc(N2CCCCC2)c1`, the melting point fell in the range of 161 to 162 °C. To `CC1c2cc(C(C)(C)C)cc(C(C)(C)C)c2O[PH](=O)Oc2c1cc(C(C)(C)C)cc2C(C)(C)C` (stereo unspecified) belongs 209 °C; to `COc1cc(COc2ccc(S(=O)(=O)c3ccc(C)nc3Nc3c(C)cc(C)cc3C)cc2)cc(OC)c1`, 107 to 109 °C; to `NCc1ccc(Nc2n[nH]c3ncnc(Nc4cccc(Cl)c4)c23)cc1`, 207 to 209 °C.

In turn, `COCn1c(C(O)(c2ccc(Cl)cc2)c2ccc(Cl)cc2)nc(C)c1C` registered a melting point of 151 °C. For `Cc1[nH]c(=O)[nH]c1C(=O)C1CC1` the value was 272 to 273 °C.

As for `COc1cc2ncc(OC3CCCCC3)nc2cc1OC1CCCCC1`, the melting point lay in the range of 75 to 78 °C. `CCCCC(Oc1ccc(CCNS(=O)(=O)c2ccc(Cl)cc2)cc1)C(=O)O` (stereo unspecified) registered a melting point of 138 to 139 °C. For `CCOC(=O)c1c(Cn2cnnc2)nc2cc3c(cc2c1-c1ccc(OC)c(OC)c1)OCCO3` the value was 237 to 239 °C. Compound `COC(=O)Nc1nc2c(C(C)C)cc(SC3=C(O)C[C@@](CCc4ccc(O)cc4)(C(C)C)OC3=O)c(C)c2s1` displayed a melting point of 150 to 151 °C.

With `CCC(=CC(CNC(C)=O)=NO)C(C)[N+](=O)[O-]` (stereo unspecified), the melting point was 124 to 125 °C. To `N#Cc1cc(Cl)ccc1Oc1cc(N2CCOCC2)c(F)cc1OCc1ccccc1` belongs 134 to 135 °C; to `O=C(NCCCOc1ccncc1)c1ccccc1CO`, 108 to 109 °C; to `Nc1cc2c(cc1[N+](=O)[O-])CCC2`, 131 to 132 °C. In turn, `CCOC(=O)c1cccc(-c2nc(-c3cc(C)sc3C)cs2)c1` came in with a melting point of 115 to 116 °C. For `O=S(=O)(c1ccc(F)cc1)N1CCCC1c1cccs1` (racemic), the melting point is 97 °C. For `COC(=O)c1nn(C2CCCCO2)cc1NC(=O)c1cc(Cl)ccn1` (stereo unspecified) the value was 201 to 203 °C; for `CCOC(=O)/C=C/c1ccc(C=Cc2nc(-c3ccc4ccccc4c3)oc2C)cc1`, 186 to 187 °C; for `COc1cc(C2CCCCC2)ccc1CCCC(=O)O`, 104 to 105 °C. For `CCS(=O)(=O)ON=C(C#N)c1ccc(OC)cc1` the value was 102 °C; for `CC1(C)Oc2c(ccc3oc(C(=O)O)cc(=O)c23)-c2cc(Cl)ccc21`, 262 to 264 °C. With `COc1ccc(Cl)cc1C(CCO)c1ccccc1` (stereo unspecified), the melting point turned out to be 80 °C. For `CCCOc1ccc(C)cc1-c1nc2c(CCC)nn(C)c2c(=O)[nH]1` the value was 115 to 116 °C; for `N#Cc1ccc(N(Cc2ccc(O)c(Br)c2)n2cnnc2)cc1-c1ccoc1`, 200 to 201 °C; for `N#Cc1ccc(CCN2CCC(NC(=O)C34CC5CC(CC(C5)C3)C4)C2)cc1` (stereo unspecified), 104 to 105 °C. For `COc1cc(C=C2SC(N3CCCC3)=NC2=O)cc(-c2ccc(O)c(C34CC5CC(CC(C5)C3)C4)c2)c1O` the value was 353 to 355 °C.

The compound `O=C(c1ccc(Br)cc1Cl)N1Cc2cccn2Cc2ccccc21` gave a melting point of 77 to 80 °C.

In turn, `COc1ccc(-c2ccc(CC3CC=CC3)cc2)cc1` yielded a melting point of 75 to 77 °C.

The compound `CS(=O)(=O)c1ccc(C(=O)c2cc(-c3ccc(Cl)cc3)c(N3CCOCC3)s2)cc1` returned a melting point of 242 to 243 °C. For `COc1cc(C(=O)N2CCC(CCN3CCC(Nc4nc5ccccc5n4Cc4ccc(Cl)s4)CC3)(c3ccc(F)c(F)c3)C2)cc(OC)c1OC` (stereo unspecified) the value was 110 to 120 °C; for `CCn1c(Oc2cccc(NC(=O)N(C)C)c2)nnc1[C@@H](C)NS(=O)(=O)c1ccc(Cl)c(Cl)c1`, 158 to 159 °C; for `Cc1cnc(C)n1CC(=O)c1ccc(-c2ccc(N3C[C@H](Cn4ccnn4)OC3=O)cc2F)cn1`, 112 to 115 °C. To `CCCCc1nn(-c2cc([N+](=O)[O-])ccc2Cl)c(=O)n1Cc1ccc(-c2ccccc2S(=O)(=O)NC(C)(C)C)cc1F` belongs 124 to 126 °C; to `CCOC(=O)C1=Cc2cc(-c3ccc(S(C)(=O)=O)cc3)ccc2OCC1`, 150 to 153 °C. For `O=C(NCc1ccc(Cl)c(Cl)c1)c1ccc2n1Cc1ccccc1N(C(=O)CSc1ccc(Br)cc1)C2` the value was 150 °C; for `O=C(O)c1cn(CCCO)c(=O)c2cc(Cl)ccc12`, 193 °C; for `CC1=CC(O)C(OC(=O)c2nc[nH]c2C)C(C)(C)CC1=O` (stereo unspecified), 201 to 202 °C.
